Values after ≈ are worked out from the molar mass of the structure shown. Read-outs that look alike come from different tables or passages of the source.
Assays:
[1] = test system: VIM-24 producing K. pneumoniae; assay: Imipenem MIC of clinical isolate, VIM-24 K. pneumoniae; type: cell-based; details: Klebsiella pneumoniae
[2] = test system: E. coli DH10B pBCSK(−) producing R228Y variant; assay: MIC by agar dilution, E. coli DH10B producing VIM-2 R228Y; type: cell-based; details: Escherichia coli
Protocol: (§1) E. coli DH10B (Invitrogen, Carlsbad, Calif.) was used as a host strain for pBCSK (−) blaVIM-2, and to obtain a mutant library at position 228 by site-saturation mutagenesis, using the QuickChange XL Site-directed Mutagenesis Kit (Stratagene). Briefly, primers that capture all 19 variants at MBL position 228 were designed and PCR mutagenic reactions were conducted using pBCSK (−) blaVIM-2 as a template, and transformed into E. coli DH10B. Single colonies were selected for plasmid purification, and successful mutagenesis was verified by complete DNA sequencing.
(§2) The effect of Zn^2+ availability was also tested by agar dilution using MH supplemented with 250 μM ZnSO4 or 5 μM EDTA. Reported values are the mode of at least 3 biological replicates.

[3] = test system: E. coli DH10B pBCSK(−) producing VIM-24 (R228L); assay: MIC by agar dilution, E. coli DH10B producing VIM-24; type: cell-based; details: Escherichia coli, read-out: MIC
Protocol: as §1, §2

[4] = test system: E. coli DH10B pBCSK(−) producing VIM-2 (228R); assay: MIC by agar dilution, E. coli DH10B producing VIM-2; type: cell-based; details: Escherichia coli, read-out: MIC
Description: A forward primer containing the SacI restriction site and a reverse primer with the BamHI restriction site were used to amplify blaVIM-2 including the pET24a(+) ribosomal binding site, using plasmid pET-24a(+)-blaVIM-2 as template. The product was then subcloned into phagemid pBCSK (−) (Agilent (Santa Clara, Calif.)) using the above restriction sites, and thus placing the blaVIM-2 open reading frame under control of the lac promoter, to yield phagemid pBCSK (−) blaVIM-2.
as §1, §2

[5] = test system: E. coli DH10B pBCSK(−) producing R228P variant; assay: MIC by agar dilution, E. coli DH10B producing VIM-2 R228P; type: cell-based; details: Escherichia coli
Protocol: as §1, §2

[6] = test system: VIM-2 producing P. aeruginosa; assay: Imipenem MIC of clinical isolate, VIM-2 P. aeruginosa; type: cell-based
[7] = test system: E. coli DH10B pBCSK(−) producing R228K variant; assay: MIC by agar dilution, E. coli DH10B producing VIM-2 R228K; type: cell-based; details: Escherichia coli
Protocol: as §1, §2

[8] = test system: E. coli DH10B pBCSK(−) producing R228M variant; assay: MIC by agar dilution, E. coli DH10B producing VIM-2 R228M; type: cell-based; details: Escherichia coli
Protocol: as §1, §2

[9] = test system: E. coli DH10B pBCSK(−) producing R228Q variant; assay: MIC by agar dilution, E. coli DH10B producing VIM-2 R228Q; type: cell-based; details: Escherichia coli
Protocol: as §1, §2

E. coli pBC SK(−) = assay: MIC by agar dilution, E. coli DH10B host with empty phagemid; type: cell-based; details: Escherichia coli
Protocol: as §1, §2

VIM-24 [10] = target: T1, VIM-24 (Escherichia coli, UniProt Q5U7L7, R205L); assay: BTZ inhibition kinetics of nitrocefin hydrolysis by VIM-24; type: biochemical
T1 construct: which corresponds to cleavage after residues 20 (plus an additional Met residue on the N-terminus); made in house; host or cells: E. coli BL21(DE3) pLys, plasmid pET-24a(+)-blaVIM-24-S21
Description: (§3) Analysis of BTZ inhibition kinetics. Models involving one, or two-step slow binding were considered to analyze BTZ inhibition of NFC hydrolysis by VIM-2 and VIM-24 (Scheme 1).
(§4) Here E represents the free enzyme, and I the free inhibitor, EI is the final enzyme-inhibitor complex for a single step slow binding mechanism, and E*I is the enzyme-inhibitor complex formed after conformational changes in a two-step slow binding mechanism. Therefore, the dissociation constant for the EI complex (Ki), also called the inhibitor constant, is defined as Ki=k−1/k1; the dissociation constant for the E*I complex (Ki′) is defined as Ki′=k−2/k2, and the overall dissociation constant for the two-step mechanism (Ki*) is defined as Ki*=Ki/(1+([…])).
(§5) The Ki for each inhibitor was determined by direct competition assays under steady-state conditions. The initial velocity was measured in the presence of a constant concentration of enzyme (3 nM for VIM-2 and 4 nM for VIM-24) with increasing concentrations of inhibitor (5-60 μM) against a fixed concentration (5 x KM) of the indicator substrate, NCF, as previously described (42-44). The reactions were started by addition of VIM-2 or VIM-24 to substrate or to mixtures of substrate and inhibitor. Data were linearized by plotting inverse initial steady-state velocities (1/v0) against inhibitor concentration (I). Ki (observed) was determined by dividing the value for the y intercept by the slope of the line. Ki determinations were corrected to account for the affinity of NCF for the β-lactamase according to equation 3.
(§6) Measurements of association rate constants for inhibitor binding were carried out at 25° C. in 10 mM HEPES at pH 7.5 supplemented with 200 mM NaCl, 50 μM […] and 50 μg/ml BSA, in the presence of several concentrations of each compound. Reactions were then initiated by the addition of β-lactamase (3 nM VIM-2 or 4 nM VIM-24) to a mixture of 50 μM NCF and each BTZ without pre-incubation. Inhibitor association rate constants were estimated from linear extrapolation of the observed rate constant for inhibition (kobs), which was obtained by fitting progress curves of NFC hydrolysis to Eq. 4:
(§7) As previously described, the linear dependence of kobs vs. [I] at limiting I concentration approximates second-order rate constant k2/Ki. The observed second-order rate constant also includes an adjustment for competition between inhibitor and substrate binding (Eq. 5).
(§8) Also, vs calculated from the progress curves of NCF hydrolysis for each concentration of inhibitor were used to determine Ki*, according to the relationship shown in equation 6 (5). The value reported is the mean of three velocities±SD.
(§9) To further test the time-dependent inhibition mechanism of inhibitor binding, assays using dilutions of pre-formed complexes were performed. For these experiments, 1 μM of enzyme was incubated with varying concentrations of the inhibitor which allowed for complete inactivation of the enzyme during the 5 min incubation at 25° C. The reactions were then diluted 2,000-fold in 10 mM HEPES at pH 7.5 supplemented with 200 mM NaCl, 50 μM […] and 50 μg/ml BSA, which contained 50 μM NCF. Reactivation of the enzyme based on NCF hydrolysis was monitored over time. Control reaction with the free enzyme was performed in the same fashion.

VIM-2 = target: T2, VIM-2 (Pseudomonas aeruginosa, UniProt Q9K2N0); assay: BTZ inhibition kinetics of nitrocefin hydrolysis by VIM-2; type: biochemical, P. aeruginosa
T2 construct: made in house; host or cells: E. coli BL21(DE3) pLys, plasmid pET-24a(+)-blaVIM-2-S21
Description: as §3, §4, §5, §6, §7, §8, §9

VIM-24 [11] = target: T1, VIM-24; assay: Steady-state kinetic parameters of substrate hydrolysis by VIM-24; type: biochemical; details: pH 7.5, 25° C., average ± SD, triplicate
Description: Steady-state reactions were followed using an Agilent (Santa Clara, Calif.) 8453 Diode Array spectrophotometer as previously described. […] For ceftazidime and cefepime, a 0.2-cm path length quartz cuvette was used. A nonlinear leastsquares fit of the data (Henri Michaelis-Menten equation) using Enzfitter (Biosoft Corporation, Ferguson, Mo.) was employed to obtain the steady-state kinetic parameters Vmax and KM according to equation 1.
In this equation the observed first-order rate constant k=kcat/KM*[E].

[12] = MHA supplemented with 5 μM EDTA
[13] = MHA supplemented with 250 μM Zn2+
[14] = rate constant for breakdown of E*I
[15] = rate constant for formation of E*I

Compound: C[C@@H](O)[C@H]1C(=O)N2C(C(=O)O)=C(SCCN=CN)C[C@H]12 [Imipenem]
- MIC ([1]; VIM-24 producing K. pneumoniae): 2 µg/mL
- MIC ([1]; VIM-24 producing K. pneumoniae clinical isolate): 1 µg/mL
- MIC ([2]; MHA): 1 µg/mL (≈ 3.34 µM)
- MIC [2, 12]: 1 µg/mL (≈ 3.34 µM)
- MIC [2, 13]: 1 µg/mL (≈ 3.34 µM)
- MIC [3, 12]: 0.5 µg/mL (≈ 1.67 µM)
- MIC [3, 13]: 1 µg/mL (≈ 3.34 µM)
- MIC ([3]; MHA): 0.5 µg/mL (≈ 1.67 µM)
- MIC [4, 12]: 0.5 µg/mL (≈ 1.67 µM)
- MIC [4, 13]: 1 µg/mL (≈ 3.34 µM)
- MIC ([4]; MHA): 0.5 µg/mL (≈ 1.67 µM)
- MIC ([5]; MHA): 0.5 µg/mL (≈ 1.67 µM)
- MIC [5, 12]: ≤ 0.125 µg/mL
- MIC [5, 13]: 0.25 µg/mL (≈ 0.835 µM)
- MIC ([6]; Pseudomonas aeruginosa): 32 µg/mL
- MIC ([6]; VIM-2 harboring P. aeruginosa clinical isolate): 32 µg/mL
- MIC ([7]; MHA): 0.25 µg/mL (≈ 0.835 µM)
- MIC [7, 12]: 0.25 µg/mL (≈ 0.835 µM)
- MIC [7, 13]: 0.25 µg/mL (≈ 0.835 µM)
- MIC ([8]; MHA): 2 µg/mL (≈ 6.68 µM)
- MIC [8, 12]: 1 µg/mL (≈ 3.34 µM)
- MIC [8, 13]: 4 µg/mL (≈ 13.4 µM)
- MIC ([9]; MHA): 4 µg/mL (≈ 13.4 µM)
- MIC [9, 12]: 4 µg/mL (≈ 13.4 µM)
- MIC [9, 13]: > 4 µg/mL
- MIC (E. coli pBC SK(−); MHA): 0.25 µg/mL (≈ 0.835 µM)
- MIC (E. coli pBC SK(−); [12]): ≤ 0.125 µg/mL
- MIC (E. coli pBC SK(−); [13]): 0.25 µg/mL (≈ 0.835 µM)

Compound: CO/N=C(\C(=O)N[C@@H]1C(=O)N2C(C(=O)O)=C(COC(C)=O)CS[C@H]12)c1csc(N)n1 [Cefotaxime]
- MIC ([2]; MHA): 16 µg/mL (≈ 35.1 µM)
- MIC ([3]; MHA): 16 µg/mL (≈ 35.1 µM)
- MIC ([4]; MHA): 8 µg/mL (≈ 17.6 µM)
- MIC ([5]; MHA): 1 µg/mL (≈ 2.2 µM)
- MIC ([7]; MHA): 1 µg/mL (≈ 2.2 µM)
- MIC ([8]; MHA): 16 µg/mL (≈ 35.1 µM)
- MIC ([9]; MHA): 32 µg/mL (≈ 70.3 µM)
- MIC (E. coli pBC SK(−); MHA): 0.06 µg/mL (≈ 0.132 µM)

Compound: CC1(C)SC2CSC(CS)N2C1C(=O)O [D-VC26]
- k−2 (VIM-24 [10]; [14]): 0.00007 ± 1 × 10^−5 s^−1
- k2 (VIM-24 [10]; [15]): 0.01 ± 3 × 10^−3 s−1
- Ki (VIM-2; initial complex EI, NCF as reporter substrate): 14 ± 1 µM
- Ki (VIM-2; overall dissociation constant of two-step mechanism (E*I)): 0.1 ± 0.03 µM
- k−2 (VIM-2; [14]): 0.0006 ± 4 × 10^−4 s^−1
- k2 (VIM-2; [15]): 0.09 ± 4 × 10^−3 s^−1

Compound: O=C(Cc1cccs1)N[C@@H]1C(=O)N2C(C(=O)O)=C(/C=C/c3ccc([N+](=O)[O-])cc3[N+](=O)[O-])CS[C@H]12 [Nitrocefin]
- Kcat (VIM-24 [11]): 171 ± 4 s⁻¹
- Km (VIM-24 [11]): 11 ± 1 µM

Compound: CC(=O)OCC1=C(C(=O)O)N2C(=O)[C@@H](NC(=O)Cc3cccs3)[C@H]2SC1 [Cephalothin]
- MIC ([5]; MHA): 16 µg/mL (≈ 40.4 µM)
- MIC ([7]; MHA): 16 µg/mL (≈ 40.4 µM)
- Kcat (VIM-24 [11]): 150 ± 9 s⁻¹
- Km (VIM-24 [11]): 33 ± 5 µM
- MIC ([9]; MHA): 1020 µg/mL (≈ 2580 µM)
- MIC (E. coli pBC SK(−); MHA): 8 µg/mL (≈ 20.2 µM)
